Laboratory results: patent EP0295827A2, “Use of 24,25-dihydroxy-cholecalciferol in mending bone fractures” (priority 1987, dated 1988)

Tests used:
ICR mice [1] = experiment: 30-day repeated oral administration: urine analysis; format: in vivo; parameters: key: ↓: Decreased; →: No change; ↑: Increased; conditions: 30 days, vs control group
Description: (§1) 24R,25-(OH)₂-D₃ was dissolved in 1% ethanol containing Panacate 810 to a predetermined concentration and the resultant solution was forcibly and orally administered to 5-week-old male or female ICR mice for 30 days in succession so that the does might become to 10 µg/kg/day, 100 µg/kg/day and 1,000 µg/kg/day, respectively. The thus treated mice were compared with a group of mice to which only the solvent had been administered in the following test items.

[2] = 30-day repeated oral administration: growth curve of measured weights; format: in vivo, ICR mice; conditions: 10, 100 and 1,000 µg/kg/day oral, 30 days, male or female, vs solvent group
Description: as §1

ICR mice [3] = experiment: 30-day repeated oral administration: weight of organs; format: in vivo; parameters: key: ↓: Decreased; →: No change; ↑: Increased; conditions: 30 days, vs control group
Description: as §1

[4] = tested on: rabbits suffering fracture; experiment: Fibula fracture model: strength test (bending test); format: in vivo, Japanese white house rabbits; conditions: 100 µg/kg oral, average value ± standard deviation
Text: (§2) The right fibulae of mature house rabbits (Japanese white house rabbits having a weight of about 3 kg) were broken at the central portions under anesthetic with a dental hand drill. Each of the house rabbits was kept in a separate cage and was allowed to take an ordinary solid food (CR-1, produced by Nippon Clare Corp.) and city water freely. 24R,25-(OH)₂-D₃ and 24S,25-(OH)₂-D₃ were dispersed in an aqueous 0.5% CMC solution and orally administered to the house rabbits through a rubber catheter. The experimental groups were as follows:
(§3) The respective medicines or aqueous 0.5% CMC solution was administered to these house rabbits for 3 weeks or 6 weeks after the bones had been broken. Thereafter, the house rabbits were killed and the fibulae were taken out for X-ray inspection and a strength test (bending test by DDV-VMF produced by Toyo Baldwin Co., Ltd.).

[5] = tested on: rabbits suffering fracture; experiment: Fibula fracture model: X-ray inspection; format: in vivo, Japanese white house rabbits; conditions: 100 µg/kg oral, 3 weeks after the bones had been broken
Text: as §2, §3

Ketone body (ICR mice [1]; female, 10 μg/kg oral): → | Occult blood (ICR mice [1]; female, 10 μg/kg oral): → | Protein (ICR mice [1]; female, 10 μg/kg oral): → | Sugar (ICR mice [1]; female, 10 μg/kg oral): → | Urobilinogen (ICR mice [1]; female, 10 μg/kg oral): → | pH (ICR mice [1]; female, 10 μg/kg oral): → | Ketone body (ICR mice [1]; female, 100 μg/kg oral): → | Occult blood (ICR mice [1]; female, 100 μg/kg oral): → | Protein (ICR mice [1]; female, 100 μg/kg oral): → | Sugar (ICR mice [1]; female, 100 μg/kg oral): → | Urobilinogen (ICR mice [1]; female, 100 μg/kg oral): → | pH (ICR mice [1]; female, 100 μg/kg oral): → | Ketone body (ICR mice [1]; female, 1000 μg/kg oral): → | Occult blood (ICR mice [1]; female, 1000 μg/kg oral): → | Protein (ICR mice [1]; female, 1000 μg/kg oral): → | Sugar (ICR mice [1]; female, 1000 μg/kg oral): → | Urobilinogen (ICR mice [1]; female, 1000 μg/kg oral): → | pH (ICR mice [1]; female, 1000 μg/kg oral): → | Ketone body (ICR mice [1]; male, 10 μg/kg oral): → | Occult blood (ICR mice [1]; male, 10 μg/kg oral): → | Protein (ICR mice [1]; male, 10 μg/kg oral): → | Sugar (ICR mice [1]; male, 10 μg/kg oral): → | Urobilinogen (ICR mice [1]; male, 10 μg/kg oral): → | pH (ICR mice [1]; male, 10 μg/kg oral): → | Ketone body (ICR mice [1]; male, 100 μg/kg oral): → | Occult blood (ICR mice [1]; male, 100 μg/kg oral): → | Protein (ICR mice [1]; male, 100 μg/kg oral): → | Sugar (ICR mice [1]; male, 100 μg/kg oral): → | Urobilinogen (ICR mice [1]; male, 100 μg/kg oral): → | pH (ICR mice [1]; male, 100 μg/kg oral): → | Ketone body (ICR mice [1]; male, 1000 μg/kg oral): → | Occult blood (ICR mice [1]; male, 1000 μg/kg oral): → | Protein (ICR mice [1]; male, 1000 μg/kg oral): → | Sugar (ICR mice [1]; male, 1000 μg/kg oral): → | Urobilinogen (ICR mice [1]; male, 1000 μg/kg oral): → | pH (ICR mice [1]; male, 1000 μg/kg oral): → | growth curve of the measured weights [2]: no significant difference | Weight of organs: Adrenal gland (ICR mice [3]; gemale, 10 μg/kg·day oral): → | Weight of organs: Brain (ICR mice [3]; gemale, 10 μg/kg·day oral): → | Weight of organs: Heart (ICR mice [3]; gemale, 10 μg/kg·day oral): → | Weight of organs: Hypo-physis (ICR mice [3]; gemale, 10 μg/kg·day oral): → | Weight of organs: Kidney (ICR mice [3]; gemale, 10 μg/kg·day oral): → | Weight of organs: Liver (ICR mice [3]; gemale, 10 μg/kg·day oral): → | Weight of organs: Lung (ICR mice [3]; gemale, 10 μg/kg·day oral): → | Weight of organs: Ovary (ICR mice [3]; gemale, 10 μg/kg·day oral): → | Weight of organs: Spleen (ICR mice [3]; gemale, 10 μg/kg·day oral): → | Weight of organs: Thymus (ICR mice [3]; gemale, 10 μg/kg·day oral): → | Weight of organs: Uterus (ICR mice [3]; gemale, 10 μg/kg·day oral): → | Weight of organs: Adrenal gland (ICR mice [3]; gemale, 100 μg/kg·day oral): → | Weight of organs: Brain (ICR mice [3]; gemale, 100 μg/kg·day oral): → | Weight of organs: Heart (ICR mice [3]; gemale, 100 μg/kg·day oral): → | Weight of organs: Hypo-physis (ICR mice [3]; gemale, 100 μg/kg·day oral): → | Weight of organs: Kidney (ICR mice [3]; gemale, 100 μg/kg·day oral): → | Weight of organs: Liver (ICR mice [3]; gemale, 100 μg/kg·day oral): → | Weight of organs: Lung (ICR mice [3]; gemale, 100 μg/kg·day oral): → | Weight of organs: Ovary (ICR mice [3]; gemale, 100 μg/kg·day oral): → | Weight of organs: Spleen (ICR mice [3]; gemale, 100 μg/kg·day oral): → | Weight of organs: Thymus (ICR mice [3]; gemale, 100 μg/kg·day oral): → | Weight of organs: Uterus (ICR mice [3]; gemale, 100 μg/kg·day oral): → | Weight of organs: Adrenal gland (ICR mice [3]; gemale, 1000 μg/kg·day oral): → | Weight of organs: Brain (ICR mice [3]; gemale, 1000 μg/kg·day oral): → | Weight of organs: Heart (ICR mice [3]; gemale, 1000 μg/kg·day oral): → | Weight of organs: Hypo-physis (ICR mice [3]; gemale, 1000 μg/kg·day oral): → | Weight of organs: Kidney (ICR mice [3]; gemale, 1000 μg/kg·day oral): → | Weight of organs: Liver (ICR mice [3]; gemale, 1000 μg/kg·day oral): → | Weight of organs: Lung (ICR mice [3]; gemale, 1000 μg/kg·day oral): → | Weight of organs: Ovary (ICR mice [3]; gemale, 1000 μg/kg·day oral): → | Weight of organs: Spleen (ICR mice [3]; gemale, 1000 μg/kg·day oral): → | Weight of organs: Thymus (ICR mice [3]; gemale, 1000 μg/kg·day oral): → | Weight of organs: Uterus (ICR mice [3]; gemale, 1000 μg/kg·day oral): → | Weight of organs: Adrenal gland (ICR mice [3]; male, 10 μg/kg·day oral): → | Weight of organs: Brain (ICR mice [3]; male, 10 μg/kg·day oral): → | Weight of organs: Heart (ICR mice [3]; male, 10 μg/kg·day oral): → | Weight of organs: Hypo-physis (ICR mice [3]; male, 10 μg/kg·day oral): → | Weight of organs: Kidney (ICR mice [3]; male, 10 μg/kg·day oral): → | Weight of organs: Liver (ICR mice [3]; male, 10 μg/kg·day oral): → | Weight of organs: Lung (ICR mice [3]; male, 10 μg/kg·day oral): → | Weight of organs: Spleen (ICR mice [3]; male, 10 μg/kg·day oral): → | Weight of organs: Testis (ICR mice [3]; male, 10 μg/kg·day oral): → | Weight of organs: Thymus (ICR mice [3]; male, 10 μg/kg·day oral): → | Weight of organs: Adrenal gland (ICR mice [3]; male, 100 μg/kg·day oral): → | Weight of organs: Brain (ICR mice [3]; male, 100 μg/kg·day oral): → | Weight of organs: Heart (ICR mice [3]; male, 100 μg/kg·day oral): → | Weight of organs: Hypo-physis (ICR mice [3]; male, 100 μg/kg·day oral): → | Weight of organs: Kidney (ICR mice [3]; male, 100 μg/kg·day oral): → | Weight of organs: Liver (ICR mice [3]; male, 100 μg/kg·day oral): → | Weight of organs: Lung (ICR mice [3]; male, 100 μg/kg·day oral): → | Weight of organs: Spleen (ICR mice [3]; male, 100 μg/kg·day oral): → | Weight of organs: Testis (ICR mice [3]; male, 100 μg/kg·day oral): → | Weight of organs: Thymus (ICR mice [3]; male, 100 μg/kg·day oral): → | Weight of organs: Adrenal gland (ICR mice [3]; male, 1000 μg/kg·day oral): → | Weight of organs: Brain (ICR mice [3]; male, 1000 μg/kg·day oral): → | Weight of organs: Heart (ICR mice [3]; male, 1000 μg/kg·day oral): → | Weight of organs: Hypo-physis (ICR mice [3]; male, 1000 μg/kg·day oral): → | Weight of organs: Kidney (ICR mice [3]; male, 1000 μg/kg·day oral): → | Weight of organs: Liver (ICR mice [3]; male, 1000 μg/kg·day oral): → | Weight of organs: Lung (ICR mice [3]; male, 1000 μg/kg·day oral): → | Weight of organs: Spleen (ICR mice [3]; male, 1000 μg/kg·day oral): → | Weight of organs: Testis (ICR mice [3]; male, 1000 μg/kg·day oral): → | Weight of organs: Thymus (ICR mice [3]; male, 1000 μg/kg·day oral): →
SMILES: C=C1CC[C@H](O)C/C1=C/C=C1\CCC[C@]2(C)[C@@H]([C@H](C)CC[C@@H](O)C(C)(C)O)CC[C@@H]12 [24R,25-(OH)₂-D₃]
Bending strength ([4]; 3 weeks after): 63 ± 33 N/mm | Bending strength ([4]; 6 weeks after): 103 ± 15 N/mm | X-ray inspection [5]: the cure of the fracture was accelerated
